In paper PMC10111420, “Optimization of Host Cell-Compatible, Antimicrobial Peptides Effective against Biofilms and Clinical Isolates of Drug-Resistant Bacteria” (ACS Infectious Diseases, 2023):
In brackets after ≈: the same amount, converted by molar mass. Several values for one entry are separate records, joined by “and”; a condition that tells them apart may be missing. Equal entries are not always repeated. Where a SMILES comes first, the peptide text is derived from it. [ ]: non-standard residue; d: D form. dAgb = N=C(N)NCC[C@@H](N)C(=O)O; βAla = NCCC(=O)O

Legend:
S. aureus (ATCC 25923) = test system: S. aureus (ATCC 25923)
Procedure: (§1) All peptide variants were synthesized and purified as described previously.[5],[7] They were tested in broth dilution in the presence and absence of 1 × 10^9 human RBCs per mL, 20% of the concentration in human blood, against Escherichia coli, K. pneumoniae, and Staphylococcus aureus. […] The toxicity of the variants was tested by measuring hemolysis as well as cytotoxicity against human WI-38 fibroblast cells.
(§2) Subcultures, prepared by inoculating 25 mL of fresh tryptic soy broth (TSB) with 200 μL of an overnight culture, were grown to log phase (OD600 = 0.3–0.6), after which cell counts were determined by measuring the OD600 (1.0 = 5 × 10^8 CFU/mL for E. coli, 4 × 10^8 CFU/mL for K. pneumoniae, 4 × 10^8 CFU/mL for P. aeruginosa, 1.5 × 10^8 CFU/mL for S. aureus). Bacterial cells were diluted to appropriate concentrations in TSB. We used the following clinical bacterial isolates of Klebsiella pneumoniae in this study: Strains KP6, KP46, NDM-1, KP396, and KP398 have been previously described.[43] ST58 strains C2, C3, and I2 are also described.[41] […] MRSA, […] S. aureus strain, is SAP400, a USA400 strain of community-acquired MRSA. […] The second independent set of K. pneumoniae isolates are previously described.[20],[21]
(§3) The antibiotics were serially diluted by a factor of 2:3 horizontally across 96-well plates from Corning, 25 μL per well. One column was reserved for controls. For the assays performed in the presence of RBC, type O+ human RBCs at 0 or 2.5 × 10^9 cells/mL were added in 50 μL aliquots to all wells. Following a 30-min incubation, 50 μL of TSB, inoculated with 5 × 10^5 CFU/mL, was added to all wells, and plates were incubated overnight at 37 °C. Following overnight incubation at 37 °C, the OD600 was measured (values of less than 0.1 were considered sterilized). To assess bacterial growth in the assays with RBC, the OD600 was measured after a second-day inoculation with 10 μL of solution from the original plate added to 100 μL of sterile TSB followed by overnight incubation.
(§4) Experiments were repeated four to eight times independently, with pairs of replicate measurements on each 96-well plate. After overnight growth, optical densities were measured at 660 nm and the sterilized wells were identified by having O.D. < 0.08. Nonsterilized wells were nearly opaque with OD > 0.6. For each measurement, we recorded the largest dilution that sterilized the bacteria. Statistics are done on dilution numbers, rather than calculated concentrations, because only the former have normal distributions.

in vitro = assay type: cell-based, human; details: human
Procedure: (§5) The day before cytotoxicity experiments, the 10,000 cells/well were plated in a 96-well tissue-culture plate. […] To perform the cytotoxicity assay, media was removed from the wells and replaced with peptide solutions. […] The plate was read for SYTOX fluorescence every 5 min for an hour with an excitation wavelength of 504 nm and an emission wavelength of 523 nm. Percent cytotoxicity was calculated at 60 min using the 100 and 0% lysis controls. At least three independent experiments were averaged.

human RBCs = assay type: cell-based
Procedure: Human O+ erythrocytes were obtained from Interstate Blood Bank, Inc. Red blood cells were subjected to four or more cycles of centrifugation at 1000g with resuspension in fresh PBS. Following the final wash step, the supernatant was clear and colorless. RBC concentration was determined using a standard hemocytometer.
Peptide was serially diluted in PBS starting at a concentration of 100 μM. The final volume of peptide in each well was 50 μL. To each well, 50 μL of RBCs in PBS at 2 × 10^8 cells/mL was added. As a positive lysis control, 1% Triton was used. The mixtures were incubated at 37 °C for 1 h, after which they were centrifuged at 1000g for 5 min. After centrifugation, 10 μL of supernatant was transferred to 90 μL of DI H2O in a fresh 96-well plate. The absorbance of released hemoglobin at 410 nm was recorded, and the fractional hemolysis was calculated based on the 100 and 0% lysis controls. At least three independent experiments were performed. Results shown are averages.

[1] = test system: K. pneumoniae subsp. pneumoniae (ATCC 13883)
Procedure: as §1, §2, §3, §4

[2] = test system: WI-38 human fibroblast cells; assay: in vitro; assay type: cell-based
Procedure: as §5

[3] = test system: K. pneumoniae clinical isolates
Procedure: as §2, §3, §4

[4] = test system: K. pneumoniae clinical isolates; assay: microbe, parasite or virus in culture; details: clinical isolates
Procedure: as §2
as §3, with “Following a 30-min incubation, 50 μL of TSB, inoculated with 5 × 10^5 CFU/mL, was added to all wells, and plates were incubated overnight at 37 °C. Following overnight incubation at 37 °C, the OD600 was measured (values of less than 0.1 were considered sterilized).” left out
as §4

[5] = test system: Pseudomonas aeruginosa clinical isolates; assay: microbe, parasite or virus in culture; details: clinical isolates
Procedure: as §2, §3, §4

[6] = test system: MRSA SAP400, a USA400 strain; assay: microbe, parasite or virus in culture; details: USA400
Procedure: as §2, §3, §4

[7] = test system: Acinetobacter baumannii (PDR) Tulane isolate; details: PDR) Tulane isolate
P. aeruginosa = details: cited from earlier work
[8] = test system: P. aeruginosa PAO1 (EYFP) pellicle biofilms; assay: Pellicle biofilm assay, viable cell enumeration; assay type: cell-based, Pseudomonas aeruginosa; details: 2 μM, 48 h pellicle biofilm, 24 h challenge, dispersing and counting viable cells
Procedure: Here, we directly compare the antibiofilm activity of D-CONGA and D-CONGA-Q7 using a mature pellicle biofilm of P. aeruginosa.[22] […] To determine the susceptibility of pellicle biofilms to D-CONGA and D-CONGA-Q7, we cultured 2-day-old biofilms as described in the Methods section. The coverslip-adhered biofilms were exposed to challenge solution for 24 h prior to staining with SYTOX red and imaging with CLSM for EYFP, which indicates live cells, and for SYTOX Red which stains dead cells and extracellular DNA. […] The % cell survival was quantitated in two ways: (i) COMSTAT was used to compare biofilm biomass in CLSM images by estimating the biofilm biovolume, which is calculated as the overall volume/substratum area (μm^3/μm^2).[24],[25] […] (ii) The biofilms were dispersed mechanically for subsequent enumeration of viable cells such that % survival is expressed as the ratio (CFUuntreated biofilm/CFUtreated biofilm).
The susceptibility of biofilm-embedded P. aeruginosa cells to the antimicrobial peptides was studied as reported previously[23] using a P. aeruginosa PAO1 strain expressing enhanced yellow fluorescent protein (EYFP).[22] The EYFP-expressing P. aeruginosa strain was routinely grown in Pseudomonas Isolation (PI) media (20 g/L peptone, 0.3 g/L, MgCl2·6H2O, 10 g/L, K2SO4, 25 mg/L irgasan, and 20 mL/L glycerol, pH 7.0). […] Iron supplementation was carried out by addition of a small volume of filter-sterilized 10 mM (NH4)2Fe(SO4)2 (pH ∼ 2.0) solution.
In brief: Starter cultures (5 mL PI media supplemented with 10 μM Fe) were grown (14 h) from a single-colony shaking (220 rpm) at 37 °C. To grow the pellicle biofilms, starter cultures were diluted to OD600 = 0.001 in 4 mL of PI media supplemented with 20 μM Fe, placed in 35 × 10 mm Petri dishes, and incubated statically at 30 °C for 48 h. The pellicles were harvested using circular (1.5 cm diameter) glass coverslips by gently allowing the surface of a coverslip to contact the biofilm at the air–liquid interface. […]

## CC(C)C[C@@H](NC(=O)[C@@H](CCNC(=N)N)NC(=O)[C@@H](CCNC(=N)N)NC(=O)[C@@H](C)NC(=O)[C@@H](Cc1c[nH]c2ccccc12)NC(=O)[C@@H](CCCNC(=N)N)NC(=O)[C@H](N)CCCNC(=N)N)C(=O)N[C@H](C)C(=O)N[C@H](Cc1ccccc1)C(=O)N[C@H](C)C(=O)N[C@H](Cc1ccccc1)C(=O)N[C@H](CCCNC(=N)N)C(=O)N[C@H](CCCNC(=N)N)C(N)=O [D-CONGA- NorR] (H-[dR][dR][dW][dA][dAgb][dAgb][dL][dA][dF][dA][dF][dR][dR]-NH2; N-terminus and C-terminus assumed)
S. aureus (ATCC 25923)
  MIC in Broth Dilution, S. Aureus: 17 µM (≈ 29.5 µg/mL)

## CC(C)C[C@@H](NC(=O)[C@@H](CCCNC(=N)N)NC(=O)[C@H](CCCNC(=N)N)NC(=O)[C@@H](C)NC(=O)[C@@H](Cc1c[nH]c2ccccc12)NC(=O)[C@@H](CCCNC(=N)N)NC(=O)[C@H](N)CCCNC(=N)N)C(=O)N[C@H](C)C(=O)N[C@H](Cc1ccccc1)C(=O)N[C@@H](C)C(=O)N[C@H](Cc1ccccc1)C(=O)N[C@H](CCCNC(=N)N)C(=O)N[C@H](CCCNC(=N)N)C(N)=O [D-CONGA-L-R5,A10] (H-[dR][dR][dW][dA]R[dR][dL][dA][dF]A[dF][dR][dR]-NH2; N-terminus and C-terminus assumed)
In vitro
  EC50 at 60 min: > 1000 µM
Human RBCs
  Hemolysis at 100 μM (fractional hemolysis): 0.04

## CC(C)C[C@@H](NC(=O)[C@@H](CCCNC(=N)N)NC(=O)[C@@H](CCCNC(=N)N)NC(=O)[C@@H](C)NC(=O)[C@@H](Cc1c[nH]c2ccccc12)NC(=O)[C@@H](CCCNC(=N)N)NC(=O)[C@H](N)CCCNC(=N)N)C(=O)N[C@H](C)C(=O)N[C@H](Cc1ccccc1)C(=O)N[C@H](C)C(=O)N[C@H](Cc1ccccc1)C(=O)N[C@H](CCCNC(=N)N)C(N)=O [D-CONGA-ΔR13] (H-[dR][dR][dW][dA][dR][dR][dL][dA][dF][dA][dF][dR]-NH2; N-terminus and C-terminus assumed)
[1]
  MIC in Broth Dilution, K. Pneumoniae: 2.1 µM (≈ 3.37 µg/mL)
[2]
  EC50: 300 µM
Human RBCs
  Hemolysis at 100 μM (fractional hemolysis): 0.03

## CC(C)C[C@@H](NC(=O)CCNC(=O)[C@@H](CCCNC(=N)N)NC(=O)[C@@H](CCCNC(=N)N)NC(=O)[C@@H](C)NC(=O)[C@@H](Cc1c[nH]c2ccccc12)NC(=O)[C@@H](CCCNC(=N)N)NC(=O)[C@H](N)CCCNC(=N)N)C(=O)N[C@H](C)C(=O)N[C@H](Cc1ccccc1)C(=O)N[C@H](C)C(=O)N[C@H](Cc1ccccc1)C(=O)N[C@H](CCCNC(=N)N)C(=O)N[C@H](CCCNC(=N)N)C(N)=O [D-CONGA-βA7] (H-[dR][dR][dW][dA][dR][dR][βAla][dL][dA][dF][dA][dF][dR][dR]-NH2; N-terminus and C-terminus assumed)
In vitro
  EC50 at 60 min: > 1000 µM
Human RBCs
  Hemolysis at 100 μM (fractional hemolysis): 0.02

## CC(C)C[C@@H](NC(=O)[C@@H](CCCNC(=N)N)NC(=O)[C@@H](CCCNC(=N)N)NC(=O)[C@@H](C)NC(=O)[C@@H](Cc1c[nH]c2ccccc12)NC(=O)[C@@H](CCCNC(=N)N)NC(=O)[C@H](N)CCCNC(=N)N)C(=O)N[C@H](C)C(=O)N[C@H](Cc1ccccc1)C(=O)N[C@H](C)C(=O)N[C@H](Cc1ccccc1)C(=O)N[C@H](CCCNC(=N)N)C(=O)N[C@H](CCCNC(=N)N)C(N)=O [D-CONGA] (H-[dR][dR][dW][dA][dR][dR][dL][dA][dF][dA][dF][dR][dR]-NH2)
[3]
  K. Pneumoniae Isolate MIC, 1000527: > 25 µM
  K. Pneumoniae Isolate MIC, 1002565: > 25 µM
  K. Pneumoniae Isolate MIC, 1100770: 7.3 µM
  K. Pneumoniae Isolate MIC, 1100975: 14 µM
  K. Pneumoniae Isolate MIC, ATCC 43816: 5.4 µM
  K. Pneumoniae Isolate MIC, ATCC 700721: 5.4 µM
  K. Pneumoniae Isolate MIC, K6: 2.7 µM
  K. Pneumoniae Isolate MIC, K 6.1: 14 µM
  K. Pneumoniae Isolate MIC, K 6.2: 14 µM
  K. Pneumoniae Isolate MIC, KP 80: 14 µM
  K. Pneumoniae Isolate MIC, KP NIH 1: > 25 µM
  K. Pneumoniae Isolate MIC, KP NIH 10: > 25 µM
  K. Pneumoniae Isolate MIC, KP NIH 24: > 25 µM
  K. Pneumoniae Isolate MIC, KP NIH 27: > 25 µM
  K. Pneumoniae Isolate MIC, KP NIH 29: 14 µM
  K. Pneumoniae Isolate MIC, KP NIH 30: 7.3 µM
  K. Pneumoniae Isolate MIC, KP NIH 31: 7.3 µM
  K. Pneumoniae Isolate MIC, KP NIH 32: > 25 µM
  K. Pneumoniae Isolate MIC, KP NIH 33: 3.6 µM
[4]
  MIC, KP 6: 4.2 µM (≈ 7.4 µg/mL)
  MIC, KP 46: 4.4 µM (≈ 7.75 µg/mL)
  MIC, KP 398: 32 µM (≈ 56.4 µg/mL)
  MIC, KP 2146NDM-1: 15 µM (≈ 26.4 µg/mL)
  MIC, KP (CRE): 23 µM (≈ 40.5 µg/mL)
  MIC, KP ATCC 33495: 5.0 µM (≈ 8.81 µg/mL)
  MIC, KP ST258 C2: 64 µM (≈ 113 µg/mL)
  MIC, KP ST258 C3: 92 µM (≈ 162 µg/mL)
  MIC, KP ST258 I2: 3.2 µM (≈ 5.64 µg/mL)
  MIC, KP ST396: 2.0 µM (≈ 3.52 µg/mL)
Human RBCs
  Hemolysis at 100 μM (fractional hemolysis): 0.06
[5]
  MIC, PA(mucoid): 4.4 µM (≈ 7.75 µg/mL)
  MIC, PA(non-mucoid): 1.3 µM (≈ 2.29 µg/mL)
[6]
  MIC, MRSA USA400: 2.6 µM (≈ 4.58 µg/mL)
[7]
  MIC, AB (PDR)Tulane: 2.4 µM (≈ 4.23 µg/mL)

## colistin
P. aeruginosa
  reported MIC: 1 μg/mL and 0.79 μM
[8]
  Reduction of biofilm CFU: no detectable activity
